Data from PubChem BioAssay (NCI).
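Five compound concentrations were applied to cells in 96-well plates for 48 hours; endpoints were derived by simple linear interpolation of the resulting dose-response curve. The concentration for 50% growth inhibition is given as GI50. Definition used: TGI = concentration required for complete inhibition of growth.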

How the values were obtained:
Assay in all cases: NCI anticancer screen, dose series, 48 h
786-0 renal = test system: 786-0 renal
A498 renal = test system: A498 renal
A549 NSCLC = test system: A549 NSCLC
ACHN renal = test system: ACHN renal
BT-549 breast = test system: BT-549 breast
CAKI-1 renal = test system: CAKI-1 renal
CCRF-CEM leukemia = test system: CCRF-CEM leukemia
COLO 205 colon = test system: COLO 205 colon
DU-145 prostate = test system: DU-145 prostate
EKVX NSCLC = test system: EKVX NSCLC
HCC-2998 colon = test system: HCC-2998 colon
HCT-116 colon = test system: HCT-116 colon
HCT-15 colon = test system: HCT-15 colon
HL-60(TB) leukemia = test system: HL-60(TB) leukemia
HOP-62 NSCLC = test system: HOP-62 NSCLC
HOP-92 NSCLC = test system: HOP-92 NSCLC
HS 578T breast = test system: HS 578T breast
HT29 colon = test system: HT29 colon
IGROV1 ovarian = test system: IGROV1 ovarian
K-562 leukemia = test system: K-562 leukemia
KM12 colon = test system: KM12 colon
LOX IMVI melanoma = test system: LOX IMVI melanoma
M14 melanoma = test system: M14 melanoma
MALME-3M melanoma = test system: MALME-3M melanoma
MCF7 breast = test system: MCF7 breast
MDA-MB-231 breast = test system: MDA-MB-231 breast
MDA-MB-435 = test system: MDA-MB-435
MDA-MB-468 breast = test system: MDA-MB-468 breast
MOLT-4 leukemia = test system: MOLT-4 leukemia
NCI-H226 lung = test system: NCI-H226 lung

In the case of `CC(=O)c1ccc(Nc2nc(SCCC(C)C)nc(-c3ccc(F)cc3)c2C#N)cc1`, the GI50 (786-0 renal) was 3.09 µM, the TGI (786-0 renal) was 8.47 µM and the GI50 (A498 renal) was 2.84 µM. It also gave a TGI (A498 renal) of 8.8 µM, a GI50 (A549 NSCLC) of 3.85 µM and a TGI (A549 NSCLC) greater than 100 µM. For the same molecule, the GI50 (ACHN renal) was 2.07 µM, the TGI (ACHN renal) was 4.56 µM and the GI50 (BT-549 breast) was 12.7 µM. For the same molecule, the TGI (BT-549 breast) was greater than 100 µM, the GI50 (CAKI-1 renal) was 3.75 µM and the TGI (CAKI-1 renal) was 23.5 µM. It also gave a GI50 (CCRF-CEM leukemia) greater than 100 µM, a TGI (CCRF-CEM leukemia) greater than 100 µM and a GI50 (COLO 205 colon) of 7.42 µM. It also gave a TGI (COLO 205 colon) greater than 100 µM, a GI50 (DU-145 prostate) of 10.7 µM and a TGI (DU-145 prostate) greater than 100 µM. It also gave a GI50 (EKVX NSCLC) of 3.05 µM, a TGI (EKVX NSCLC) of 18.8 µM and a GI50 (HCC-2998 colon) of 21 µM. For the same molecule, the TGI (HCC-2998 colon) was greater than 100 µM, the GI50 (HCT-116 colon) was 3.51 µM and the TGI (HCT-116 colon) was 13.7 µM. It also gave a GI50 (HCT-15 colon) of 9.87 µM, a TGI (HCT-15 colon) greater than 100 µM and a GI50 (HL-60(TB) leukemia) greater than 100 µM. For the same molecule, the TGI (HL-60(TB) leukemia) was greater than 100 µM, the GI50 (HOP-62 NSCLC) was 3.99 µM and the TGI (HOP-62 NSCLC) was 16.3 µM. It also gave a GI50 (HOP-92 NSCLC) of 2.95 µM, a TGI (HOP-92 NSCLC) of 16.6 µM and a GI50 (HS 578T breast) of 3.06 µM. The TGI (HS 578T breast) was 10.1 µM, the GI50 (HT29 colon) was 5.53 µM and the TGI (HT29 colon) was greater than 100 µM. It also gave a GI50 (IGROV1 ovarian) of 10.6 µM, a TGI (IGROV1 ovarian) of 37.9 µM and a GI50 (K-562 leukemia) of 32.2 µM. It also gave a TGI (K-562 leukemia) greater than 100 µM, a GI50 (KM12 colon) of 45.5 µM and a TGI (KM12 colon) greater than 100 µM. For the same molecule, the GI50 (LOX IMVI melanoma) was 4.41 µM, the TGI (LOX IMVI melanoma) was 25.7 µM and the GI50 (M14 melanoma) was 24.2 µM. For the same molecule, the TGI (M14 melanoma) was greater than 100 µM, the GI50 (MALME-3M melanoma) was 32.6 µM and the TGI (MALME-3M melanoma) was greater than 100 µM. The GI50 (MCF7 breast) was 7.51 µM, the TGI (MCF7 breast) was greater than 100 µM and the GI50 (MDA-MB-231 breast) was 2.94 µM. The TGI (MDA-MB-231 breast) was 10.2 µM, the GI50 (MDA-MB-435) was 12.9 µM and the TGI (MDA-MB-435) was greater than 100 µM. It also gave a GI50 (MDA-MB-468 breast) of 10.2 µM, a TGI (MDA-MB-468 breast) of 50.3 µM and a GI50 (MOLT-4 leukemia) greater than 100 µM. It also gave a TGI (MOLT-4 leukemia) greater than 100 µM and a GI50 (NCI-H226 lung) of 3.82 µM.
